{"source": "the supplement of paper PMC8612539", "system": "Escherichia coli", "assay": "minimum inhibitory concentration (MIC)", "experimental": "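Broth microdilution MIC (Sensititre BOPO7F bovine plate, CLSI methods) of 19 antimicrobials against field isolates of P. multocida, M. haemolytica, H. somni (deep nasopharyngeal swabs) and E. coli, Enterococcus spp. (rectal swabs) from weaned dairy heifers. Incubation 16-24 h at 35 C. MIC is the lowest concentration preventing visible growth. Values with <= or > lie at the tested range limits. Trimethoprim-sulfamethoxazole is given as the trimethoprim component of a 1:19 mixture.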", "data": [{"smiles": "CO/N=C(\\C(=O)N[C@@H]1C(=O)N2C(C(=O)O)=C(CSC(=O)c3ccco3)CS[C@H]12)c1csc(N)n1", "note": "[Ceftiofur]", "values": [{"measurement": "minimum inhibitory concentration", "setting": "isolate (source animal id): 8", "result": 0.5, "unit": "µg/mL"}, {"measurement": "minimum inhibitory concentration", "setting": "isolate (source animal id): 9", "result": 1, "unit": "µg/mL"}, {"measurement": "minimum inhibitory concentration", "setting": "isolate (source animal id): 10", "result": "≤ 0.25", "unit": "µg/mL"}, {"measurement": "minimum inhibitory concentration", "setting": "isolate (source animal id): 11", "result": "≤ 0.25", "unit": "µg/mL"}, {"measurement": "minimum inhibitory concentration", "setting": "isolate (source animal id): 12", "result": 0.5, "unit": "µg/mL"}, {"measurement": "minimum inhibitory concentration", "setting": "isolate (source animal id): 13", "result": "> 8", "unit": "µg/mL"}, {"measurement": "minimum inhibitory concentration", "setting": "isolate (source animal id): 14", "result": "> 8", "unit": "µg/mL"}, {"measurement": "minimum inhibitory concentration", "setting": "isolate (source animal id): 15", "result": "≤ 0.25", "unit": "µg/mL"}, {"measurement": "minimum inhibitory concentration", "setting": "isolate (source animal id): 16", "result": 0.5, "unit": "µg/mL"}, {"measurement": "minimum inhibitory concentration", "setting": "isolate (source animal id): 98", "result": 0.5, "unit": "µg/mL"}, {"measurement": "minimum inhibitory concentration", "setting": "isolate (source animal id): 99", "result": 0.5, "unit": "µg/mL"}, {"measurement": "minimum inhibitory concentration", "setting": "isolate (source animal id): 100", "result": "≤ 0.25", "unit": "µg/mL"}, {"measurement": "minimum inhibitory concentration", "setting": "isolate (source animal id): 101", "result": "≤ 0.25", "unit": "µg/mL"}, {"measurement": "minimum inhibitory concentration", "setting": "isolate (source animal id): 102", "result": 0.5, "unit": "µg/mL"}, {"measurement": "minimum inhibitory concentration", "setting": "isolate (source animal id): 103", "result": 0.5, "unit": "µg/mL"}, {"measurement": "minimum inhibitory concentration", "setting": "isolate (source animal id): 104", "result": "≤ 0.25", "unit": "µg/mL"}, {"measurement": "minimum inhibitory concentration", "setting": "isolate (source animal id): 105", "result": 0.5, "unit": "µg/mL"}, {"measurement": "minimum inhibitory concentration", "setting": "isolate (source animal id): 106", "result": 0.5, "unit": "µg/mL"}, {"measurement": "minimum inhibitory concentration", "setting": "isolate (source animal id): 107", "result": "≤ 0.25", "unit": "µg/mL"}, {"measurement": "minimum inhibitory concentration", "setting": "isolate (source animal id): 108", "result": "≤ 0.25", "unit": "µg/mL"}, {"measurement": "minimum inhibitory concentration", "setting": "isolate (source animal id): 109", "result": "≤ 0.25", "unit": "µg/mL"}, {"measurement": "minimum inhibitory concentration", "setting": "isolate (source animal id): 110", "result": 0.5, "unit": "µg/mL"}, {"measurement": "minimum inhibitory concentration", "setting": "isolate (source animal id): 111", "result": "≤ 0.25", "unit": "µg/mL"}, {"measurement": "minimum inhibitory concentration", "setting": "isolate (source animal id): 112", "result": "≤ 0.25", "unit": "µg/mL"}, {"measurement": "minimum inhibitory concentration", "setting": "isolate (source animal id): 113", "result": 0.5, "unit": "µg/mL"}, {"measurement": "minimum inhibitory concentration", "setting": "isolate (source animal id): 114", "result": 0.5, "unit": "µg/mL"}, {"measurement": "minimum inhibitory concentration", "setting": "isolate (source animal id): 115", "result": 4, "unit": "µg/mL"}, {"measurement": "minimum inhibitory concentration", "setting": "isolate (source animal id): 116", "result": 0.5, "unit": "µg/mL"}, {"measurement": "minimum inhibitory concentration", "setting": "isolate (source animal id): 117", "result": "≤ 0.25", "unit": "µg/mL"}, {"measurement": "minimum inhibitory concentration", "setting": "isolate (source animal id): 118", "result": 0.5, "unit": "µg/mL"}, {"measurement": "minimum inhibitory concentration", "setting": "isolate (source animal id): 119", "result": 1, "unit": "µg/mL"}, {"measurement": "minimum inhibitory concentration", "setting": "isolate (source animal id): 120", "result": 0.5, "unit": "µg/mL"}, {"measurement": "minimum inhibitory concentration", "setting": "isolate (source animal id): 121", "result": 0.5, "unit": "µg/mL"}, {"measurement": "minimum inhibitory concentration", "setting": "isolate (source animal id): 122", "result": 0.5, "unit": "µg/mL"}, {"measurement": "minimum inhibitory concentration", "setting": "isolate (source animal id): 123", "result": "≤ 0.25", "unit": "µg/mL"}, {"measurement": "minimum inhibitory concentration", "setting": "isolate (source animal id): 124", "result": 0.5, "unit": "µg/mL"}, {"measurement": "minimum inhibitory concentration", "setting": "isolate (source animal id): 125", "result": 0.5, "unit": "µg/mL"}, {"measurement": "minimum inhibitory concentration", "setting": "isolate (source animal id): 126", "result": 0.5, "unit": "µg/mL"}, {"measurement": "minimum inhibitory concentration", "setting": "isolate (source animal id): 127", "result": 0.5, "unit": "µg/mL"}, {"measurement": "minimum inhibitory concentration", "setting": "isolate (source animal id): 128", "result": 8, "unit": "µg/mL"}, {"measurement": "minimum inhibitory concentration", "setting": "isolate (source animal id): 129", "result": 0.5, "unit": "µg/mL"}, {"measurement": "minimum inhibitory concentration", "setting": "isolate (source animal id): 130", "result": 0.5, "unit": "µg/mL"}, {"measurement": "minimum inhibitory concentration", "setting": "isolate (source animal id): 131", "result": 0.5, "unit": "µg/mL"}, {"measurement": "minimum inhibitory concentration", "setting": "isolate (source animal id): 132", "result": "> 8", "unit": "µg/mL"}, {"measurement": "minimum inhibitory concentration", "setting": "isolate (source animal id): 133", "result": 0.5, "unit": "µg/mL"}, {"measurement": "minimum inhibitory concentration", "setting": "isolate (source animal id): 134", "result": 0.5, "unit": "µg/mL"}, {"measurement": "minimum inhibitory concentration", "setting": "isolate (source animal id): 135", "result": 0.5, "unit": "µg/mL"}, {"measurement": "minimum inhibitory concentration", "setting": "isolate (source animal id): 136", "result": 0.5, "unit": "µg/mL"}, {"measurement": "minimum inhibitory concentration", "setting": "isolate (source animal id): 137", "result": 0.5, "unit": "µg/mL"}, {"measurement": "minimum inhibitory concentration", "setting": "isolate (source animal id): 138", "result": "≤ 0.25", "unit": "µg/mL"}, {"measurement": "minimum inhibitory concentration", "setting": "isolate (source animal id): 139", "result": "≤ 0.25", "unit": "µg/mL"}, {"measurement": "minimum inhibitory concentration", "setting": "isolate (source animal id): 140", "result": 0.5, "unit": "µg/mL"}, {"measurement": "minimum inhibitory concentration", "setting": "isolate (source animal id): 141", "result": 0.5, "unit": "µg/mL"}, {"measurement": "minimum inhibitory concentration", "setting": "isolate (source animal id): 142", "result": 0.5, "unit": "µg/mL"}, {"measurement": "minimum inhibitory concentration", "setting": "isolate (source animal id): 143", "result": 2, "unit": "µg/mL"}, {"measurement": "minimum inhibitory concentration", "setting": "isolate (source animal id): 144", "result": 8, "unit": "µg/mL"}, {"measurement": "minimum inhibitory concentration", "setting": "isolate (source animal id): 145", "result": 0.5, "unit": "µg/mL"}, {"measurement": "minimum inhibitory concentration", "setting": "isolate (source animal id): 146", "result": "≤ 0.25", "unit": "µg/mL"}, {"measurement": "minimum inhibitory concentration", "setting": "isolate (source animal id): 147", "result": 8, "unit": "µg/mL"}, {"measurement": "minimum inhibitory concentration", "setting": "isolate (source animal id): 148", "result": "≤ 0.25", "unit": "µg/mL"}, {"measurement": "minimum inhibitory concentration", "setting": "isolate (source animal id): 149", "result": "≤ 0.25", "unit": "µg/mL"}, {"measurement": "minimum inhibitory concentration", "setting": "isolate (source animal id): 150", "result": 0.5, "unit": "µg/mL"}, {"measurement": "minimum inhibitory concentration", "setting": "isolate (source animal id): 151", "result": "≤ 0.25", "unit": "µg/mL"}, {"measurement": "minimum inhibitory concentration", "setting": "isolate (source animal id): 152", "result": "≤ 0.25", "unit": "µg/mL"}, {"measurement": "minimum inhibitory concentration", "setting": "isolate (source animal id): 153", "result": "≤ 0.25", "unit": "µg/mL"}, {"measurement": "minimum inhibitory concentration", "setting": "isolate (source animal id): 154", "result": 0.5, "unit": "µg/mL"}, {"measurement": "minimum inhibitory concentration", "setting": "isolate (source animal id): 155", "result": "≤ 0.25", "unit": "µg/mL"}, {"measurement": "minimum inhibitory concentration", "setting": "isolate (source animal id): 156", "result": 8, "unit": "µg/mL"}, {"measurement": "minimum inhibitory concentration", "setting": "isolate (source animal id): 157", "result": 0.5, "unit": "µg/mL"}, {"measurement": "minimum inhibitory concentration", "setting": "isolate (source animal id): 158", "result": 0.5, "unit": "µg/mL"}, {"measurement": "minimum inhibitory concentration", "setting": "isolate (source animal id): 159", "result": "≤ 0.25", "unit": "µg/mL"}, {"measurement": "minimum inhibitory concentration", "setting": "isolate (source animal id): 160", "result": "≤ 0.25", "unit": "µg/mL"}, {"measurement": "minimum inhibitory concentration", "setting": "isolate (source animal id): 161", "result": "≤ 0.25", "unit": "µg/mL"}, {"measurement": "minimum inhibitory concentration", "setting": "isolate (source animal id): 162", "result": 8, "unit": "µg/mL"}, {"measurement": "minimum inhibitory concentration", "setting": "isolate (source animal id): 163", "result": 0.5, "unit": "µg/mL"}, {"measurement": "minimum inhibitory concentration", "setting": "isolate (source animal id): 164", "result": "≤ 0.25", "unit": "µg/mL"}, {"measurement": "minimum inhibitory concentration", "setting": "isolate (source animal id): 165", "result": "≤ 0.25", "unit": "µg/mL"}, {"measurement": "minimum inhibitory concentration", "setting": "isolate (source animal id): 166", "result": "≤ 0.25", "unit": "µg/mL"}, {"measurement": "minimum inhibitory concentration", "setting": "isolate (source animal id): 167", "result": 0.5, "unit": "µg/mL"}, {"measurement": "minimum inhibitory concentration", "setting": "isolate (source animal id): 168", "result": "≤ 0.25", "unit": "µg/mL"}, {"measurement": "minimum inhibitory concentration", "setting": "isolate (source animal id): 169", "result": 0.5, "unit": "µg/mL"}, {"measurement": "minimum inhibitory concentration", "setting": "isolate (source animal id): 170", "result": 0.5, "unit": "µg/mL"}, {"measurement": "minimum inhibitory concentration", "setting": "isolate (source animal id): 171", "result": 0.5, "unit": "µg/mL"}, {"measurement": "minimum inhibitory concentration", "setting": "isolate (source animal id): 172", "result": "≤ 0.25", "unit": "µg/mL"}, {"measurement": "minimum inhibitory concentration", "setting": "isolate (source animal id): 173", "result": 0.5, "unit": "µg/mL"}, {"measurement": "minimum inhibitory concentration", "setting": "isolate (source animal id): 174", "result": 0.5, "unit": "µg/mL"}, {"measurement": "minimum inhibitory concentration", "setting": "isolate (source animal id): 175", "result": 0.5, "unit": "µg/mL"}, {"measurement": "minimum inhibitory concentration", "setting": "isolate (source animal id): 176", "result": 0.5, "unit": "µg/mL"}, {"measurement": "minimum inhibitory concentration", "setting": "isolate (source animal id): 177", "result": 8, "unit": "µg/mL"}, {"measurement": "minimum inhibitory concentration", "setting": "isolate (source animal id): 178", "result": 0.5, "unit": "µg/mL"}, {"measurement": "minimum inhibitory concentration", "setting": "isolate (source animal id): 179", "result": "≤ 0.25", "unit": "µg/mL"}, {"measurement": "minimum inhibitory concentration", "setting": "isolate (source animal id): 180", "result": 0.5, "unit": "µg/mL"}, {"measurement": "minimum inhibitory concentration", "setting": "isolate (source animal id): 181", "result": "≤ 0.25", "unit": "µg/mL"}, {"measurement": "minimum inhibitory concentration", "setting": "isolate (source animal id): 182", "result": 0.5, "unit": "µg/mL"}, {"measurement": "minimum inhibitory concentration", "setting": "isolate (source animal id): 183", "result": 0.5, "unit": "µg/mL"}, {"measurement": "minimum inhibitory concentration", "setting": "isolate (source animal id): 184", "result": 0.5, "unit": "µg/mL"}, {"measurement": "minimum inhibitory concentration", "setting": "isolate (source animal id): 185", "result": 0.5, "unit": "µg/mL"}, {"measurement": "minimum inhibitory concentration", "setting": "isolate (source animal id): 186", "result": 0.5, "unit": "µg/mL"}, {"measurement": "minimum inhibitory concentration", "setting": "isolate (source animal id): 187", "result": "≤ 0.25", "unit": "µg/mL"}, {"measurement": "minimum inhibitory concentration", "setting": "isolate (source animal id): 188", "result": "> 8", "unit": "µg/mL"}]}]}
